# Measurements published in patent US20130090327A1, “Inhibitors of Protein Tyrosine Kinase Activity” (METHYLGENE INC., priority 2011, published 2013).
# Biological target: T1, VEGFR2 (KDR) (Homo sapiens, UniProt P35968)
# T1 construct: made in house; host or cells: Sf9 cells (Spodoptera frugiperda), baculovirus (Bac-to-Bac)
# Experiment: In Vitro Receptor Tyrosine Kinase Assay (VEGF Receptor KDR)
# Type: biochemical
# Conditions: recombinant GST-VEGFR2 806-1356, DELFIA assay, ATP 0.6 uM, enzyme 5 nM; read-out: VEGFR_IC50_UM
# From the text: In Vitro Receptor Tyrosine Kinase Assay (VEGF Receptor KDR)
# This test measures the ability of compounds to inhibit the enzymatic activity of recombinant human VEGF receptor enzymatic activity.
# A 1.6-kb cDNA corresponding to the catalytic domain of VEGFR2 (KDR) (Genbank accession number AF035121 amino acid 806 to 1356) is cloned into the Pst I site of the pDEST20 Gateway vector (Invitrogen) for the production of a GST-tagged version of that enzyme. This construct is used to generate recombinant baculovirus using the Bac-to-Bac™ system according to the manufacturer's instructions (Invitrogen).
# The GST-VEGFR2806-1356 protein is expressed in Sf9 cells (Spodoptera frugiperda) upon infection with recombinant baculovirus construct. Briefly, Sf9 cells grown in suspension and maintained in serum-free medium (Sf900 II supplemented with gentamycin) at a cell density of about 2×10^6 cells/ml are infected with the above-mentioned viruses at a multiplicity of infection (MOI) of 0.1 during 72 hours at 27° C. with agitation at 120 rpm on a rotary shaker. Infected cells are harvested by centrifugation at 398 g for 15 min. Cell pellets are frozen at […] until purification is performed.
# All steps described in cell extraction and purification are performed at 4° C. Frozen Sf9 cell pellets infected with the GST-VEGFR2806-1356 recombinant baculovirus are thawed and gently resuspended in Buffer A (PBS pH 7.3 supplemented with 1 μg/ml pepstatin, 2 μg/ml Aprotinin and leupeptin, 50 μg/ml PMSF, 50 μg/ml TLCK and 10 μM E64 and 0.5 mM DTT) using 3 ml of buffer per gram of cells. Suspension is Dounce homogenized and 1% Triton X-100 is added to the homogenate after which it is centrifuged at 22500 g, 30 min., 4° C. The supernatant (cell extract) is used as starting material for purification of GST-VEGFR2806-1356.
# The supernatant is loaded onto a GST-agarose column (Sigma) equilibrated with PBS pH 7.3. Following a four column volume (CV) wash with PBS pH 7.3+1% Triton X-100 and 4 CV wash with buffer B (50 mM Tris pH 8.0, 20% glycerol and 100 mM NaCl), bound proteins are step eluted with 5 CV of buffer B supplemented with 5 mM DTT and 15 mM glutathion. GST-VEGFR2806-1356 enriched fractions from this chromatography step are pooled based on U.V. trace i.e. fractions with high O.D.280. Final GST-VEGFR2806-1356 protein preparations concentrations are about 0.7 mg/ml with purity approximating 70%. Purified GST-VEGFR2806-1356 protein stocks are aliquoted and frozen at −80° C. prior to use in enzymatic assay.
# Inhibition of VEGFR/KDR is measured in a DELFIA™ assay (Perkin Elmer). The substrate poly(Glu4,Tyr) is immobilized onto black high-binding polystyrene 96-well plates. The coated plates are washed and stored at 4° C. During the assay, the enzyme is pre-incubated with inhibitor and Mg-ATP on ice in polypropylene 96-well plates for 4 minutes, and then transferred to the coated plates. The subsequent kinase reaction takes place at 30° C. for 10-minutes. ATP concentrations in the assay are 0.6 uM for VEGFR/KDR (2× the Km). Enzyme concentration is 5 nM. After incubation, the kinase reactions are quenched with EDTA and the plates are washed. Phosphorylated product is detected by incubation with Europium-labeled anti-phosphotyrosine MoAb. After washing the plates, bound MoAb is detected by time-resolved fluorescence in a Gemini SpectraMax reader (Molecular Devices). Compounds are evaluated over a range of concentrations, and IC50 values (concentration of compounds giving 50% inhibition of enzymatic activity) are determined.
# T1 sequence (P35968 806-1356): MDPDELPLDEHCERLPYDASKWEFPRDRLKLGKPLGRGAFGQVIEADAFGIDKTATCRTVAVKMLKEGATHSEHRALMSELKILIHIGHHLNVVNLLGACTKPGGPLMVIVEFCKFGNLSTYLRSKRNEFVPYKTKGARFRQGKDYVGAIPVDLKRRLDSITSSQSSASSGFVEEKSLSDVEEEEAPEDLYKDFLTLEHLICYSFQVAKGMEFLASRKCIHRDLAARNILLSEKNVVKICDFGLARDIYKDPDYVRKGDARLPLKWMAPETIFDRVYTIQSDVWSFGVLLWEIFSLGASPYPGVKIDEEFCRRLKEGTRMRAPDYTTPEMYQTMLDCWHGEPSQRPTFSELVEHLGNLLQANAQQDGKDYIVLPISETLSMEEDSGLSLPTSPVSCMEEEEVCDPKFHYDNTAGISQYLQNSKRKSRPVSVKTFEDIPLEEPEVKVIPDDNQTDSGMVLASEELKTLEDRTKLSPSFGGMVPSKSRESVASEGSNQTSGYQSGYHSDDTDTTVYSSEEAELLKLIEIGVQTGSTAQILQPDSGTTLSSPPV
row,SMILES,IC50 [nM]
1,"CN1CCN(Cc2ccc(-c3cc4nccc(Oc5ccc(NC(=O)NC6CN(C)C6)cc5F)c4s3)nc2)CC1 [Compound 19, 1-(3-Fluoro-4-(2-(5-((4-methylpiperazin-1-yl)methyl)pyridin-2-yl)thieno[3,2-b]pyridin-7-yloxy)phenyl)-3-(1-methylazetidin-3-yl)urea]",975
2,"CC(=O)N1CC(NC(=O)Nc2ccc(Oc3ccnc4cc(-c5ccc(CN6CCC(NC(=O)OC(C)(C)C)CC6)cn5)sc34)c(F)c2)C1 [Compound 40, tert-Butyl 1-((6-(7-(4-(3-(1-acetylazetidin-3-yl)ureido)-2-fluorophenoxy)thieno[3,2-b]pyridin-2-yl)pyridin-3-yl)methyl)piperidin-4-ylcarbamate]",280
3,"CC(=O)N1CC(NC(=O)Nc2ccc(Oc3ccnc4cc(-c5ccc(CN6CCC(N)CC6)cn5)sc34)c(F)c2)C1 [Compound 41, 1-(1-Acetylazetidin-3-yl)-3-(4-(2-(5-((4-aminopiperidin-1-yl)methyl)pyridin-2-yl)thieno[3,2-b]pyridin-7-yloxy)-3-fluorophenyl)urea]",78
4,"CC(=O)N1CC(NC(=O)Nc2ccc(Oc3ccnc4cc(-c5ccc(CN6CCC(NC(=O)CO)CC6)cn5)sc34)c(F)c2)C1 [Compound 43, N-(1-((6-(7-(4-(3-(1-Acetylazetidin-3-yl)ureido)-2-fluorophenox)thieno[3,2-b]pyridin-2-yl)pyridin-3-yl)methyl)piperidin-4-yl)-2-hydroxyacetamide]",61
5,CCNC(=O)NC1CCN(Cc2ccc(-c3cc4nccc(Oc5ccc(NC(=O)NC6CN(C(C)=O)C6)cc5F)c4s3)nc2)CC1 [Compound 44],157
6,CNC1CCN(Cc2ccc(-c3cc4nccc(Oc5ccc(NC(=O)NC6CN(C(C)=O)C6)cc5F)c4s3)nc2)CC1 [Compound 45],70
7,CC(=O)N1CC(NC(=O)Nc2ccc(Oc3ccnc4cc(-c5ccc(CN6CC(NC(=O)OC(C)(C)C)C6)cn5)sc34)c(F)c2)C1 [Compound 46-A],137
8,CC(=O)N1CC(NC(=O)Nc2ccc(Oc3ccnc4cc(-c5ccc(CN6CC(N)C6)cn5)sc34)c(F)c2)C1 [Compound 46],130
9,CC(=O)N1CC(NC(=O)Nc2ccc(Oc3ccnc4cc(-c5ccc(CN6CCN(C(=O)CO)CC6)cn5)sc34)c(F)c2)C1 [Compound 47-A],68
10,CC(=O)N1CC(NC(=O)Nc2ccc(Oc3ccnc4cc(-c5ccc(CN6CCC(N(C)C(=O)CO)CC6)cn5)sc34)c(F)c2)C1 [Compound 47],32
11,CC(=O)N1CC(NC(=O)Nc2ccc(Oc3ccnc4cc(-c5ccc(CN6CC(NC(=O)CO)C6)cn5)sc34)c(F)c2)C1 [Compound 48],62
12,"CN1CCN(Cc2ccc(-c3cc4nccc(Oc5ccc(NC(=O)NC6CN(C(=O)OC(C)(C)C)C6)cc5F)c4s3)nc2)CC1 [Compound 50, tert-Butyl 3-(3-(3-fluoro-4-(2-(5-((4-methylpiperazin-1-yl)methyl)pyridin-2-yl)thieno[3,2-b]pyridin-7-yloxy)phenyl)ureido)azetidine-1-carboxylate]",35
13,CC(=O)N1CC(NC(=O)Nc2ccc(Oc3ccnc4cc(-c5ccc(CN6CCN(C)CC6)cn5)sc34)c(F)c2)C1 [Compound 51],100
14,CN1CCN(Cc2ccc(-c3cc4nccc(Oc5ccc(NC(=O)NC6CN(C(=O)Cc7ccccc7)C6)cc5F)c4s3)nc2)CC1 [Compound 53],58
15,CN1CCN(Cc2ccc(-c3cc4nccc(Oc5ccc(NC(=O)NC6CN(S(C)(=O)=O)C6)cc5F)c4s3)nc2)CC1 [Compound 54],36
16,Cc1ccc(S(=O)(=O)N2CC(NC(=O)Nc3ccc(Oc4ccnc5cc(-c6ccc(CN7CCN(C)CC7)cn6)sc45)c(F)c3)C2)cc1 [Compound 55],10
17,"O=C(CO)N1CCN(Cc2ccc(-c3cc4nccc(Oc5ccc(Nc6nc7cc(Cl)ccc7[nH]6)cc5F)c4s3)nc2)CC1 [Compound 61, 1-(4-((6-(7-(4-(5-Chloro-1H-benzo[d]imidazol-2-ylamino)-2-fluorophenoxy)thieno[3,2-b]pyridin-2-yl)pyridin-3-yl)methyl)piperazin-1-yl)-2-hydroxyethanone]",56
18,"CN1CCN(Cc2ccc(-c3cc4nccc(Oc5ccc(Nc6nc7cc(Cl)ccc7[nH]6)cc5F)c4s3)nc2)CC1 [Compound 62, 5-Chloro-N-(3-fluoro-4-(2-(5-((4-methylpiperazin-1-yl)methyl)pyridin-2-yl)thieno[3,2-b]pyridin-7-yloxy)phenyl)-1H-benzo[d]imidazol-2-amine]",44
19,"COCCNCc1ccc(-c2cc3nccc(Oc4ccc(Nc5nc6cc(Cl)ccc6[nH]5)cc4F)c3s2)nc1 [Compound 63, 5-Chloro-N-(3-fluoro-4-(2-(5-((2-methoxyethylamino)methyl)pyridin-2-yl)thieno[3,2-b]pyridin-7-yloxy)phenyl)-1H-benzo[d]imidazol-2-amine]",268
20,"COCCN(Cc1ccc(-c2cc3nccc(Oc4ccc(Nc5nc6cc(Cl)ccc6[nH]5)cc4F)c3s2)nc1)C(=O)CO [Compound 65, N-((6-(7-(4-(5-Chloro-1H-benzo[d]imidazol-2-ylamino)-2-fluorophenoxy)thieno[3,2-b]pyridin-2-yl)pyridin-3-yl)methyl)-2-hydroxy-N-(2-methoxyethyl)acetamide]",23
21,"COCCN(Cc1ccc(-c2cc3nccc(Oc4ccc(NC(=O)NC5CN(C(=O)OC(C)(C)C)C5)cc4F)c3s2)nc1)C(=O)OC(C)(C)C [Compound 67, tert-Butyl 3-(3-(4-(2-(5-((tert-butoxycarbonyl(2-methoxyethyl)amino)methyl)pyridin-2-yl)thieno[3,2-b]pyridin-7-yloxy)-3-fluorophenyl)ureido)azetidine-1-carboxylate]",57
22,"CCNC(=O)N(CCOC)Cc1ccc(-c2cc3nccc(Oc4ccc(NC(=O)NC5CN(C(=O)NCC)C5)cc4F)c3s2)nc1 [Compound 69, N-Ethyl-3-(3-(4-(2-(5-((3-ethyl-1-(2-methoxyethyl)ureido)methyl)pyridin-2-yl)thieno[3,2-b]pyridin-7-yloxy)-3-fluorophenyl)ureido)azetidine-1-carboxamide]",584
23,"COCCN(Cc1ccc(-c2cc3nccc(Oc4ccc(NC(=O)NC5CN(C(C)=O)C5)cc4F)c3s2)nc1)C(C)=O [Compound 70, N-((6-(7-(4-(3-(1-Acetylazetidin-3-yl)ureido)-2-fluorophenoxy)thieno[3,2-b]pyridin-2-yl)pyridin-3-yl)methyl)-N-(2-methoxyethyl)acetamide]",75
24,"CCOC(=O)C1CCCN(Cc2ccc(-c3cc4nccc(Oc5ccc(NC(=O)NC6COC6)cc5F)c4s3)nc2)C1 (centres unmarked) [Compound 73, Ethyl 1-((6-(7-(2-fluoro-4-(3-oxetan-3-ylureido)phenoxy)thieno[3,2-b]pyridin-2-yl)pyridin-3-yl)methyl)piperidine-3-carboxylate]",523
25,"O=C(Nc1ccc(Oc2ccnc3cc(-c4ccc(CN5CCN(C(=O)CO)CC5)cn4)sc23)c(F)c1)NC1COC1 [Compound 88, 1-(3-Fluoro-4-(2-(5-((4-(2-hydroxyacetyl)piperazin-1-yl)methyl)pyridin-2-yl)thieno[3,2-b]pyridin-7-yloxy)phenyl)-3-(oxetan-3-yl)urea]",42
26,"O=C(Nc1ccc(Oc2ccnc3cc(-c4ccc(CN5CCCC5=O)cn4)sc23)c(F)c1)NC1COC1 [Compound 93, 1-(3-Fluoro-4-(2-(5-((2-oxopyrrolidin-1-yl)methyl)pyridin-2-yl)thieno[3,2-b]pyridin-7-yloxy)phenyl)-3-(oxetan-3-yl)urea]",9
